Experimental data reported in patent US12153062B2, “Method for estimating physical property of aqueous sample” (Kao Corporation, priority 2018, dated 2024).
Blank lines part the entries; values can stand above or below the compound they belong to.

Key:
Format in all cases: physicochemical
[1] = Amount of phase-changing probe BDG required until phase structure changes (Om phase + W phase to Wm phase); conditions: surfactant 200 mmol/kg; C16 isoparaffin 4 g per 100 g; 25° C.; for calibration curve 2
Description: (§1) Using the following components, precursor samples and standard samples for preparing calibration curves were prepared, and using any of the following phase-changing probes, an amount of the phase-changing probe required until a phase structure of a standard sample changed was quantified for each of a plurality of surfactants (G). The calibration curves were prepared from the plurality of quantitative values obtained. • Surfactant (G): a plurality of polyoxyethylene lauryl ethers with different average numbers of added moles of the ethylene oxide • Oil component: an isoparaffin with an average number of carbons of 16 (hereinafter, referred to as C16 isoparaffin) • Phase-changing probe: 2-ethylhexyl diglycol or butyldiglycol
(§2) The concentration of surfactant (G) in each precursor sample was 200 mmol/kg (the balance was water).
(§3) The amount of the oil component added per 100 g of each precursor sample was determined to be 4 g by assigning 50 to X in the aforementioned formula (I).
On the other hand, in the case where an average number of added moles of the ethylene oxide of surfactant (G) was relatively small (the average number of added moles was 2 to 5), the initial phase structure of the standard sample was a mixed system of a reversed micellar oil solution phase (Om phase) and a water phase (W phase). For this standard sample, butyldiglycol (hereinafter, sometimes also referred to as BDG) was used as the phase-changing probe, and an amount of the phase-changing probe required until a phase structure of the standard sample changed from a mixed system of a reversed micellar oil solution phase (Om phase) and a water phase (W phase) to a micellar solution phase (Wm phase) was taken as the quantitative value.
(§4) Note that, in either case, the ambient temperature when the phase-changing probe was added to the standard sample was 25° C. Further, in either case, the phase-changing probe was added to the standard sample under the condition of being stirred with a magnetic stirrer.
(§5) Note that the quantitative values and HLB values were entered into spreadsheet software “Excel” (manufactured by Microsoft Corporation) to be processed, thereby obtaining the calibration curves as regression lines (calibration curves 1 and 2). Calibration curves 1 and 2 are shown in Graph A (FIG. 1).

[2] = Amount of phase-changing probe 2-EHDG required until phase structure changes (Wm phase to Om phase + W phase); liquid physical property index read from calibration curve; conditions: for Solution physical property index (corresponding HLB) from calibration curve: 100 mmol/kg
Description: as §1, §2, §3
For this standard sample, 2-ethylhexyl diglycol (hereinafter, sometimes also referred to as 2-EHDG) was used as the phase-changing probe, and an amount of the phase-changing probe required until a phase structure of the standard sample changed from a micellar solution phase (Wm phase) to a mixed system of a reversed micellar oil solution phase (Om phase) and a water phase (W phase) was taken as the quantitative value.
as §4, §5
As the oil components, components shown in Table 3 were used; as the phase-changing probe, 2-EHDG was used; and the concentration of surfactant (G) in each precursor sample was 100 mmol/kg. Note that, in this example, the amount of an oil component added per 100 g of each precursor sample was determined to be 2 g by assigning 50 to X in the aforementioned formula (I).
A measurement sample was prepared by adding 2 g of any of the oil components shown in Table 3 per 100 g of the aqueous sample.
2-EHDG as the phase-changing probe was added to the measurement sample under the same conditions as those for preparing the calibration curves, and an amount of the phase-changing probe required until a phase structure changed was quantified.

[3] = as above
[4] = surfactant 200 mmol/kg, C16 isoparaffin 4 g per 100 g, 25° C., for calibration curve 1
[5] = concentration of polyoxyethylene lauryl ether 5 mmol/kg, C16 isoparaffin 0.1 g per 100 g, calibration curve 8
[6] = surfactant 100 mmol/kg, solvent BDG 5 mass %, C16 isoparaffin 2 g per 100 g, 25° C., calibration curve 10, no inorganic salt
[7] = surfactant 100 mmol/kg, solvent BDG 5 mass %, C16 isoparaffin 2 g per 100 g, no inorganic salt
[8] = surfactant 100 mmol/kg, oil component C16 isoparaffin 2 g per 100 g, calibration curve 3
[9] = surfactant 100 mmol/kg, oil component Cyclohexane 2 g per 100 g, calibration curve 7
[10] = surfactant 100 mmol/kg, oil component Decane 2 g per 100 g, calibration curve 4
[11] = surfactant 100 mmol/kg, oil component Hexadecane 2 g per 100 g, calibration curve 6
[12] = surfactant 100 mmol/kg, oil component Tetradecane 2 g per 100 g, calibration curve 5
[13] = concentration of polyoxyethylene lauryl ether 350 mmol/kg, C16 isoparaffin 7 g per 100 g, calibration curve 9

Quantitative value (g) of phase-changing probe (BDG) [1]: 18.57 g
Compound: polyoxyethylene lauryl ether [Polyoxyethylene lauryl ether 2]

Quantitative value (g) of phase-changing probe (2-EHDG) [2, 4]: 11.92 g
Quantitative value (g) of phase-changing probe (2-EHDG) [3, 5]: 1.28 g
Compound: polyoxyethylene lauryl ether [Polyoxyethylene lauryl ether 21]

Compound: Sodium polyoxyethylene (2 moles on average) lauryl ether sulfate
Quantitative value (g) of phase-changing probe (2-EHDG) [3, 6]: 17.68 g
Solution physical property index (corresponding HLB) from calibration curve 10 [3, 7]: 17.04

Compound: CCCCCCCCCCCC[N+](C)(C)Cc1ccccc1.[Cl-] [Lauryldimethylbenzylammonium chloride]
Quantitative value (g) of phase-changing probe (2-EHDG) [3, 6]: 10.36 g
Solution physical property index (corresponding HLB) from calibration curve 10 [3, 7]: 13.97

Quantitative value (g) of phase-changing probe (BDG) [1]: 13.2 g
Compound: polyoxyethylene lauryl ether [Polyoxyethylene lauryl ether 3]

Compound: Sodium polyoxyethylene (4 moles on average) lauryl ether sulfate
Quantitative value (g) of phase-changing probe (2-EHDG) [3, 6]: 19.88 g
Solution physical property index (corresponding HLB) from calibration curve 10 [3, 7]: 17.96

Quantitative value (g) of phase-changing probe (BDG) [1]: 5.5 g
Quantitative value (g) of phase-changing probe (2-EHDG) [3, 6]: 2.12 g
Compound: polyoxyethylene lauryl ether [Polyoxyethylene lauryl ether 5]

Compound: CCCCCCCC[N+](C)(C)Cc1ccccc1.[Cl-] [Octyldimethylbenzylammonium chloride]
Quantitative value (g) of phase-changing probe (2-EHDG) [3, 6]: 9.20 g
Solution physical property index (corresponding HLB) from calibration curve 10 [3, 7]: 13.48

Quantitative value (g) of phase-changing probe (2-EHDG) [3, 6]: 4.44 g
Solution physical property index (corresponding HLB) from calibration curve 10 [3, 7]: 11.48
Compound: Lauryl glucoside

Compound: polyoxyethylene lauryl ether [Polyoxyethylene lauryl ether 12]
Quantitative value (g) of phase-changing probe (2-EHDG) [2, 8]: 10.24 g
Quantitative value (g) of phase-changing probe (2-EHDG) [2, 9]: 8.24 g
Quantitative value (g) of phase-changing probe (2-EHDG) [2, 10]: 9.4 g
Quantitative value (g) of phase-changing probe (2-EHDG) [2, 11]: 10.24 g
Quantitative value (g) of phase-changing probe (2-EHDG) [2, 12]: 10.02 g
Quantitative value (g) of phase-changing probe (2-EHDG) [2, 4]: 7.4 g
Quantitative value (g) of phase-changing probe (2-EHDG) [3, 5]: 0.94 g
Quantitative value (g) of phase-changing probe (2-EHDG) [3, 13]: 11.76 g
Quantitative value (g) of phase-changing probe (2-EHDG) [3, 6]: 12.5 g

Compound: polyoxyethylene (6 moles on average) lauryl ether [Polyoxyethylene lauryl ether 6]
Quantitative value (g) of phase-changing probe (2-EHDG) [2, 8]: 2.96 g
Quantitative value (g) of phase-changing probe (2-EHDG) [2, 9]: 1.96 g
Quantitative value (g) of phase-changing probe (2-EHDG) [2, 10]: 2.78 g
Quantitative value (g) of phase-changing probe (2-EHDG) [2, 11]: 3.4 g
Quantitative value (g) of phase-changing probe (2-EHDG) [2, 12]: 3.2 g
Quantitative value (g) of phase-changing probe (2-EHDG) [2, 4]: 1.7 g
Quantitative value (g) of phase-changing probe (2-EHDG) [3, 5]: 0.24 g
Quantitative value (g) of phase-changing probe (2-EHDG) [3, 13]: 2.44 g
Quantitative value (g) of phase-changing probe (2-EHDG) [3, 6]: 4.76 g

Compound: CCCCCCCCCCCCCCCC[N+](C)(C)C.[Cl-] [Palmityltrimethylammonium chloride]
Quantitative value (g) of phase-changing probe (2-EHDG) [3, 6]: 9.12 g
Solution physical property index (corresponding HLB) from calibration curve 10 [3, 7]: 13.45

Compound: polyoxyethylene lauryl ether [Polyoxyethylene lauryl ether 9]
Quantitative value (g) of phase-changing probe (2-EHDG) [2, 8]: 7.58 g
Quantitative value (g) of phase-changing probe (2-EHDG) [2, 9]: 5.84 g
Quantitative value (g) of phase-changing probe (2-EHDG) [2, 10]: 6.98 g
Quantitative value (g) of phase-changing probe (2-EHDG) [2, 11]: 7.74 g
Quantitative value (g) of phase-changing probe (2-EHDG) [2, 12]: 7.6 g
Quantitative value (g) of phase-changing probe (2-EHDG) [2, 4]: 5.38 g
Quantitative value (g) of phase-changing probe (2-EHDG) [3, 5]: 0.46 g
Quantitative value (g) of phase-changing probe (2-EHDG) [3, 13]: 9.36 g
Quantitative value (g) of phase-changing probe (2-EHDG) [3, 6]: 9.46 g

Compound: CCCCCCCCCCCC[N+](C)(C)CC(O)CS(=O)(=O)[O-] (stereo not drawn) [N-lauryl-N,N-dimethyl-N-(2-hydroxysulfopropyl)ammonium sulfobetaine]
Solution physical property index (corresponding HLB) from calibration curve ([2]; oil component C16 isoparaffin, calibration curve 3): 11.46
Solution physical property index (corresponding HLB) from calibration curve ([2]; oil component Decane, calibration curve 4): 11.52
Solution physical property index (corresponding HLB) from calibration curve ([2]; oil component Hexadecane, calibration curve 6): 11.44
Solution physical property index (corresponding HLB) from calibration curve ([2]; oil component Tetradecane, calibration curve 5): 11.47
Quantitative value (g) of phase-changing probe (2-EHDG) [2, 8]: 2.36 g
Quantitative value (g) of phase-changing probe (2-EHDG) [2, 9]: 1.15 g
Quantitative value (g) of phase-changing probe (2-EHDG) [2, 10]: 2.36 g
Quantitative value (g) of phase-changing probe (2-EHDG) [2, 11]: 2.78 g
Quantitative value (g) of phase-changing probe (2-EHDG) [2, 12]: 2.66 g
Quantitative value (g) of phase-changing probe (2-EHDG) [3, 6]: 3.60 g

Compound: CCCCC(CC)COC(=O)CC(C(=O)OCC(CC)CCCC)S(=O)(=O)[O-].[Na+] (stereo not drawn) [Sodium di-2-ethylhexylsulfosuccinate]
Quantitative value (g) of phase-changing probe (2-EHDG) [3, 6]: 5.50 g
Solution physical property index (corresponding HLB) from calibration curve 10 [3, 7]: 11.93

Compound: CCCCCCCCCCCC[N+](C)(C)C.[Cl-] [Lauryltrimethylammonium chloride]
Quantitative value (g) of phase-changing probe (2-EHDG) [3, 6]: 11.04 g
Solution physical property index (corresponding HLB) from calibration curve 10 [3, 7]: 14.25

Quantitative value (g) of phase-changing probe (2-EHDG) [3, 6]: 4.72 g
Solution physical property index (corresponding HLB) from calibration curve 10 [3, 7]: 11.60
Compound: CCCCCCCCCCCCCC[N+](C)(C)[O-] [Myristyl dimethylamine oxide]

Quantitative value (g) of phase-changing probe (BDG) [1]: 7.29 g
Quantitative value (g) of phase-changing probe (2-EHDG) [3, 6]: 1.16 g
Compound: polyoxyethylene lauryl ether [Polyoxyethylene lauryl ether 4]
